Source: patent US10168342B2, “Lipid probes and uses thereof” (THE SCRIPPS RESEARCH INSTITUTE, priority 2015, dated 2019)

Columns and labels:
recombinant TMEM97 = molecular target: T1, recombinant TMEM97 (Homo sapiens, UniProt Q5BJF2); assay: In situ gel-based competition of arachidonoyl probe labeling of recombinant TMEM97 in HEK293T cells; type: cell-based; settings: TMEM97-transfected HEK293T cells, probe 5 μM, competitor 25 μM
T1 construct: Full-length cDNAs encoding for the each protein of interest were subcloned into pcDNA3.1 myc-His A; expressed in transfected cells; host or cells: HEK293T
Description: Proteomes were diluted to 1.0 mg/mL (total protein concentration) and 50 μL of each proteome was transferred to separate wells in a 96-well plate.
Full-length cDNAs encoding for the each protein of interest were subcloned into pcDNA3.1 myc-His A (Invitrogen) or used directly for transfections if available in a eukaryotic expression vector. HEK293T cells were grown to ˜70% confluence under standard growth conditions before adding the appropriate cDNA [control cells (“mock”) received an equal amount of empty pcDNA3.1 myc-His A vector] and FuGENE 6 or X-tremeGENE HP (Roche) transfection reagent according to the manufacturer's instructions. Cells were incubated for 36-48 hours before labeling in situ or harvesting for in vitro experiments.

lipids of Neuro2a cells = assay: Untargeted metabolomics (lipidomic profiling) of Neuro2a cells; type: cell-based, mouse; settings: 10 μM, 6 h
Description: Discovery metabolite profiling was performed as described by Saghatelian et al., “Assignment of endogenous substrates to enzymes by global metabolite profiling,” Biochemistry 43:14332-14339 (2004) with several modifications. […] The media from the cells was removed and cells were washed with DPBS (2×5.0 mL) before adding freshly prepared media solutions containing vehicle or compound. After incubating for 6 h at 37° C. and subsequent removal of the media, the cells were harvested by scrapping in cold DPBS (3 mL) and pelleted by centrifugation in glass vials. The pellets were washed once with cold DPBS (3 mL) and then cold […] (2:1) (3 mL) was added. After vortexing, the vials were centrifuged (3,000×g, 10 min, 4° C.) and the bottom (organic) layer was transferred to a new glass vial and concentrated under a stream of N2. Samples were stored at −80° C. until the day of analysis when they were reconstituted in Mobile Phase A (100 μL, see below).
Lipid extracts were analyzed by LC/MS in both positive and negative modes using an Agilent 6520 QTOF instrument and LC separation performed on a Kinetex reversed phase C18 column (50×4.6 mm, 2.6 μm particle size, 100Å). Mobile phase A was composed of 5:1:4 isopropanol:methanol:water and Mobile phase B was composed of 99:1 isopropanol:water. Both mobile phases also contained 0.1% AcOH and NH4OAc (5 mM) to facilitate ionization and LC separation. […] To minimize carryover, LC solvents were cycled between 100% Mobile Phase A and 100% Mobile Phase B over 5 min after each run. Data analysis was performed using XCMS (Smith et al., 2006) software which is freely available online (http://xcmsonline.scripps.edu).

[1] = Neg, m/z 716.52, RT 32.28 min, versus DMSO
[2] = Neg, m/z 721.50, RT 30.94 min, versus DMSO
[3] = Neg, m/z 786.53, RT 31.97 min, versus DMSO
[4] = Neg, m/z 788.54, RT 34.16 min, versus DMSO
[5] = Neg, m/z 808.51, RT 30.14 min, versus DMSO
[6] = Pos, m/z 788.61, RT 35.81 min, versus DMSO

T1 sequence (Q5BJF2 whole entry, species assumed): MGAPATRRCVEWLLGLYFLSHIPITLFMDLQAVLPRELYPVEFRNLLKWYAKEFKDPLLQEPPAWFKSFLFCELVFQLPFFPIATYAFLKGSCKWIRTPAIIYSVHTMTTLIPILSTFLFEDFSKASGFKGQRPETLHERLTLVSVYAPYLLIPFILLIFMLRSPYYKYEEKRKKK

## C=CCN(C)CCCCCCOc1ccc(C(=O)c2ccc(Br)cc2)c(F)c1 [Ro 48-8071, reference compound]
Recombinant TMEM97
  competition of arachidonoyl probe labeling of recombinant TMEM97: competition was observed

## CN1CCN(C(=O)c2[nH]c3ccc([N+](=O)[O-])cc3c2-c2ccccc2)CC1 [MJN228, (4-Methylpiperazin-1-yl)(5-nitro-3-phenyl-1H-indol-2-yl)methanone]
Lipids of Neuro2a cells; Neg, m/z 255.23, RT 14.24 min, versus DMSO
  Fold Change, FFA 16:0: 1.17 fold
Lipids of Neuro2a cells; Neg, m/z 281.25, RT 15.75 min, versus DMSO
  Fold Change, FFA 18:1: 1.23 fold
Lipids of Neuro2a cells; Neg, m/z 283.26, RT 20.89 min, versus DMSO
  Fold Change, FFA 18:0: 1.22 fold
Lipids of Neuro2a cells; Neg, m/z 303.23, RT 12.39 min, versus DMSO
  Fold Change, FFA 20:4: 1.17 fold
Lipids of Neuro2a cells; Neg, m/z 444.31, RT 9.31 min, versus DMSO
  Fold Change, NAT 24:1: 2.51 fold
Lipids of Neuro2a cells; Neg, m/z 446.33, RT 13.76 min, versus DMSO
  Fold Change, NAT 24:0: 2.29 fold
Lipids of Neuro2a cells; Neg, m/z 452.28, RT 5.02 min, versus DMSO
  Fold Change, LPE 16:0: 1.25 fold
Lipids of Neuro2a cells; Neg, m/z 474.36, RT […], versus DMSO
  Fold Change, NAT 26:0: 2.75 fold
Lipids of Neuro2a cells; Neg, m/z 478.29, RT 5.66 min, versus DMSO
  Fold Change, LPE 18:1: 1.50 fold
Lipids of Neuro2a cells; Neg, m/z 480.31, RT 7.96 min, versus DMSO
  Fold Change, LPE 18:0: 1.43 fold
Lipids of Neuro2a cells; Neg, m/z 596.39, RT […], versus DMSO
  Fold Change, feature m/z 596.39: 2.02 fold
Lipids of Neuro2a cells; Neg, m/z 622.41, RT 12.66 min, versus DMSO
  Fold Change, feature m/z 622.41: 2.06 fold
Lipids of Neuro2a cells; Neg, m/z 673.48, RT 33.41 min, versus DMSO
  Fold Change, PA 34:1: 1.01 fold
Lipids of Neuro2a cells; [1]
  Change (direction), PE 34:1: DOWN
  Fold Change, PE 34:1: 1.35 fold
Lipids of Neuro2a cells; [2]
  Change (direction), PG 32:0: DOWN
  Fold Change, PG 32:0: 1.26 fold
Lipids of Neuro2a cells; Neg, m/z 738.51, RT 33.92 min, versus DMSO
  Fold Change, PE 36:4: 1.46 fold
Lipids of Neuro2a cells; Neg, m/z 747.52, RT 32.95 min, versus DMSO
  Fold Change, PG 34:1: 1.22 fold
Lipids of Neuro2a cells; Neg, m/z 749.53, RT 34.04 min, versus DMSO
  Fold Change, PG 34:0: 1.24 fold
Lipids of Neuro2a cells; Neg, m/z 760.51, RT 31.80 min, versus DMSO
  Fold Change, PS 34:1: 1.07 fold
Lipids of Neuro2a cells; Neg, m/z 764.52, RT 35.18 min, versus DMSO
  Fold Change, PE 38:5: 1.02 fold
Lipids of Neuro2a cells; Neg, m/z 766.54, RT 36.76 min, versus DMSO
  Fold Change, PE 38:4: 1.01 fold
Lipids of Neuro2a cells; Neg, m/z 775.55, RT 34.70 min, versus DMSO
  Fold Change, PG 36:1: 1.02 fold
Lipids of Neuro2a cells; [3]
  Change (direction), PS 36:2: DOWN
  Fold Change, PS 36:2: 1.11 fold
Lipids of Neuro2a cells; [4]
  Change (direction), PS 36:1: DOWN
  Fold Change, PS 36:1: 1.03 fold
Lipids of Neuro2a cells; [5]
  Change (direction), PS 38:5: DOWN
  Fold Change, PS 38:5: 1.05 fold
Lipids of Neuro2a cells; Neuro2a cells, P<0.0001
  elevation of metabolites (NAEs and NATs) versus DMSO: ≥ 2 fold
Lipids of Neuro2a cells; Pos, m/z 326.30, RT 8.36 min, versus DMSO
  Fold Change, NAE 18:1: 2.91 fold
Lipids of Neuro2a cells; Pos, m/z 328.32, RT 12.20 min, versus DMSO
  Fold Change, NAE 18:0: 2.00 fold
Lipids of Neuro2a cells; Pos, m/z 331.28, RT 8.51 min, versus DMSO
  Fold Change, MAG 16:0: 1.67 fold
Lipids of Neuro2a cells; Pos, m/z 358.30, RT 9.68 min, versus DMSO
  Fold Change, MAG 18:1: 1.37 fold
Lipids of Neuro2a cells; Pos, m/z 371.10, RT 13.51 min, versus DMSO
  Fold Change, feature m/z 371.10: 2.00 fold
Lipids of Neuro2a cells; Pos, m/z 522.35, RT 5.29 min, versus DMSO
  Fold Change, LPC 18:1: 1.24 fold
Lipids of Neuro2a cells; Pos, m/z 524.37, RT 7.49 min, versus DMSO
  Fold Change, LPC 18:0: 1.48 fold
Lipids of Neuro2a cells; Pos, m/z 544.34, RT 5.29 min, versus DMSO
  Fold Change, LPC 20:4: 1.69 fold
Lipids of Neuro2a cells; Pos, m/z 669.22, RT 13.52 min, versus DMSO
  Fold Change, feature m/z 669.22: 2.15 fold
Lipids of Neuro2a cells; Pos, m/z 704.21, RT 19.42 min, versus DMSO
  Fold Change, feature m/z 704.21: 2.45 fold
Lipids of Neuro2a cells; Pos, m/z 705.21, RT 19.44 min, versus DMSO
  Fold Change, feature m/z 705.21: 2.63 fold
Lipids of Neuro2a cells; Pos, m/z 743.24, RT 19.42 min, versus DMSO
  Fold Change, feature m/z 743.24: 2.56 fold
Lipids of Neuro2a cells; Pos, m/z 744.24, RT 19.44 min, versus DMSO
  Fold Change, feature m/z 744.24: 2.88 fold
Lipids of Neuro2a cells; Pos, m/z 745.24, RT 19.44 min, versus DMSO
  Fold Change, feature m/z 745.24: 2.81 fold
Lipids of Neuro2a cells; Pos, m/z 762.60, RT 36.86 min, versus DMSO
  Fold Change, PC 34:0: 1.00 fold
Lipids of Neuro2a cells; Pos, m/z 776.23, RT 25.46 min, versus DMSO
  Fold Change, feature m/z 776.23: 2.50 fold
Lipids of Neuro2a cells; Pos, m/z 777.23, RT 25.48 min, versus DMSO
  Fold Change, feature m/z 777.23: 2.52 fold
Lipids of Neuro2a cells; Pos, m/z 778.23, RT 25.47 min, versus DMSO
  Fold Change, feature m/z 778.23: 2.41 fold
Lipids of Neuro2a cells; Pos, m/z 779.23, RT 25.47 min, versus DMSO
  Fold Change, feature m/z 779.23: 2.59 fold
Lipids of Neuro2a cells; [6]
  Change (direction), PC 36:1: DOWN
  Fold Change, PC 36:1: 1.04 fold
Lipids of Neuro2a cells; Pos, m/z 817.26, RT 25.47 min, versus DMSO
  Fold Change, feature m/z 817.26: 2.35 fold
Lipids of Neuro2a cells; Pos, m/z 818.26, RT 25.47 min, versus DMSO
  Fold Change, feature m/z 818.26: 2.51 fold
Lipids of Neuro2a cells; Pos, m/z 819.26, RT 25.46 min, versus DMSO
  Fold Change, feature m/z 819.26: 2.85 fold
Lipids of Neuro2a cells; Pos, m/z 820.26, RT 25.47 min, versus DMSO
  Fold Change, feature m/z 820.26: 2.79 fold
Lipids of Neuro2a cells; Pos, m/z 850.25, RT 30.92 min, versus DMSO
  Fold Change, feature m/z 850.25: 2.42 fold
Lipids of Neuro2a cells; Pos, m/z 851.25, RT 30.92 min, versus DMSO
  Fold Change, feature m/z 851.25: 2.41 fold
Lipids of Neuro2a cells; Pos, m/z 852.25, RT 30.92 min, versus DMSO
  Fold Change, feature m/z 852.25: 2.46 fold
Lipids of Neuro2a cells; Pos, m/z 853.25, RT 30.92 min, versus DMSO
  Fold Change, feature m/z 853.25: 2.61 fold
Lipids of Neuro2a cells; Pos, m/z 924.27, RT 33.83 min, versus DMSO
  Fold Change, feature m/z 924.27: 2.14 fold
Lipids of Neuro2a cells; Pos, m/z 925.27, RT 33.83 min, versus DMSO
  Fold Change, feature m/z 925.27: 2.19 fold
Lipids of Neuro2a cells; Pos, m/z 926.27, RT 33.84 min, versus DMSO
  Fold Change, feature m/z 926.27: 2.27 fold
Lipids of Neuro2a cells; Pos, m/z 927.27, RT 33.83 min, versus DMSO
  Fold Change, feature m/z 927.27: 2.19 fold
